{"source": "paper PMC2529273", "about": "“Pharmacological Properties of DOV 315,090, an ocinaplon metabolite” (BMC Pharmacology, 2008)", "key": {"α3β2γ2S GABAA-R [1]": {"biological_target": "T1, α3β2γ2S GABAA-R (Rattus norvegicus, UniProt P18508+P20236)", "T1 sequence (P20236 29-493)": "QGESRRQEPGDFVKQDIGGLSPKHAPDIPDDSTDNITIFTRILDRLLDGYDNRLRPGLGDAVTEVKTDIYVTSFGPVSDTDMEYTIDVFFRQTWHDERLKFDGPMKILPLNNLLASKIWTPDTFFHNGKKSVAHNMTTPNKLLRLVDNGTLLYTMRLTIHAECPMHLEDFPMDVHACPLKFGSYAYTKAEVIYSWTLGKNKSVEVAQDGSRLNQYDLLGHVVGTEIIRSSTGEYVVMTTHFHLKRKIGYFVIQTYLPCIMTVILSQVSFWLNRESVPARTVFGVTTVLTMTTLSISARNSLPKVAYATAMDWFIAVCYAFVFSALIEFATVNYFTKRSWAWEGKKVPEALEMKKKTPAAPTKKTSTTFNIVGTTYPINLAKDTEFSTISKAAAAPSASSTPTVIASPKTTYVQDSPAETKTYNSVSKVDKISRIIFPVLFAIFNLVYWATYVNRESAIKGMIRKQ", "T1 sequence (P63138 25-474 partner limits assumed)": "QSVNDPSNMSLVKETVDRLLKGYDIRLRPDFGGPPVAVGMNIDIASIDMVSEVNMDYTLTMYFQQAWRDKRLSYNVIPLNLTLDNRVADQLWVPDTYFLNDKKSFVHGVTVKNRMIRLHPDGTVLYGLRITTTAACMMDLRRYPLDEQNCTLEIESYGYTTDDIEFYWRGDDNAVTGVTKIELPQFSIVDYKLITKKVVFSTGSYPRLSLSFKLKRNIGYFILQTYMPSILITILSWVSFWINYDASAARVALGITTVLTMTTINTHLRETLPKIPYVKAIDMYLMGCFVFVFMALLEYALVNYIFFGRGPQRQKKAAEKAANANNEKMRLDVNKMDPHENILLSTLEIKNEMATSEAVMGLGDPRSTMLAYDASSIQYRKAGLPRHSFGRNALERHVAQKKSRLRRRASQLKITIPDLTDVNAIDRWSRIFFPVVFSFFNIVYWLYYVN", "T1 sequence (P18508 39-466)": "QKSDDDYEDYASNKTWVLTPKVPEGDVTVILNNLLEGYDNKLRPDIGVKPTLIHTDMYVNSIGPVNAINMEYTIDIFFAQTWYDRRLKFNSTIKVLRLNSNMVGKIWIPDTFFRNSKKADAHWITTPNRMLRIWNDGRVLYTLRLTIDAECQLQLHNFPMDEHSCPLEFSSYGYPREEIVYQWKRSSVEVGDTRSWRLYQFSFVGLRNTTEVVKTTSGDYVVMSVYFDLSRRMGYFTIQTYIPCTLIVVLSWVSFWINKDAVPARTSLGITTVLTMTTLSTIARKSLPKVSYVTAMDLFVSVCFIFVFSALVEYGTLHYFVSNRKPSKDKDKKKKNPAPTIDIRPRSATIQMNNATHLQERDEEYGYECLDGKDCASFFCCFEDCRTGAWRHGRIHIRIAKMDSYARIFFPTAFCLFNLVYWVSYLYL", "assay": "cell-based", "type": "cell-based", "procedure": "(§1) cRNAs encoding GABAA-R α1, α2, α3, α5, β2 and γ2S subunits were injected into oocytes from Xenopus laevis. […] GABA (Sigma) was prepared as a 1 M stock solution in ND96. Microelectrodes of 1–3 MΩ when filled with 3 M KCl were used to record from oocytes in a recording chamber continuously perfused with ND-96 buffer solution. During data acquisition, oocytes were clamped at a holding potential of -70 mV. Drugs were applied by perfusion at a rate of approximately 50 μl sec^-1 for 20 s followed by a 120 s wash. […] All experiments were performed at room temperature (22–24°C).\n(§2) GABA concentration-response data was obtained for each subunit combination, and the GABA EC10 was determined by nonlinear regression using the logistic equation. This concentration of GABA was used for modulation studies. Peak current measurements were normalized and expressed as a fraction of the peak control current measurements. Control responses to an EC10 concentration of GABA were re-determined after every 2 – 4 applications of modulator + GABA. […] Potentiation data from each oocyte was fitted to the equation Potentiation = Emax × [Drug]/([Drug + EC50) by non-linear regression (Prism, Graph-Pad software). […] Given the lack of consistency of this possible high affinity effect, we have omitted it in fitting our concentration-effect curves. The choice of fitting to a monophasic or biphasic equation had only a small effect on the EC50 for the major component of modulation.\n(§3) Rat GABAA-Rs consisting of α1β2γ2S, α2β2γ2S, α3β2γ2S and α5β2γ2S subunits were expressed in Xenopus oocytes. […] Higher concentrations (in parentheses) were excluded from the fit due to a decline in potentiation at higher concentrations."}, "α1β2γ2S GABAA-R [2]": {"biological_target": "T2, α1β2γ2S GABAA-R (Rattus norvegicus, UniProt P18508+P62813)", "T2 sequence (P62813 28-455)": "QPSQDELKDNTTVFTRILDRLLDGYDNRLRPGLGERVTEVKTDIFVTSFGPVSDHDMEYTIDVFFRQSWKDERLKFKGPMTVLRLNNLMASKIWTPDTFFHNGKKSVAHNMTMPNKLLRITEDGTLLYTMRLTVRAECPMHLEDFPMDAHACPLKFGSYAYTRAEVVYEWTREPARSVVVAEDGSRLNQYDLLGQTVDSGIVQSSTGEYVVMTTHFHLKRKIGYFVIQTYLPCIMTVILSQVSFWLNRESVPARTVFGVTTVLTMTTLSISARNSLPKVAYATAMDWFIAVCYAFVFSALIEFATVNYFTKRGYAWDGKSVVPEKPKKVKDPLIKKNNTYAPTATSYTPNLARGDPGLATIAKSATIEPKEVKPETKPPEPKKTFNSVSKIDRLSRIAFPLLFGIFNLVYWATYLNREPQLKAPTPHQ", "T2 sequence (P63138 25-474 partner limits assumed)": "as the sequence (P63138 25-474 partner limits assumed) above", "T2 sequence (P18508 39-466)": "as the sequence (P18508 39-466) above", "assay": "cell-based", "procedure": "as §1, §2, §3"}, "α5β2γ2S GABAA-R [3]": {"biological_target": "T3, α5β2γ2S GABAA-R (Rattus norvegicus, UniProt P18508+P19969)", "T3 sequence (P19969 32-464 limits assumed)": "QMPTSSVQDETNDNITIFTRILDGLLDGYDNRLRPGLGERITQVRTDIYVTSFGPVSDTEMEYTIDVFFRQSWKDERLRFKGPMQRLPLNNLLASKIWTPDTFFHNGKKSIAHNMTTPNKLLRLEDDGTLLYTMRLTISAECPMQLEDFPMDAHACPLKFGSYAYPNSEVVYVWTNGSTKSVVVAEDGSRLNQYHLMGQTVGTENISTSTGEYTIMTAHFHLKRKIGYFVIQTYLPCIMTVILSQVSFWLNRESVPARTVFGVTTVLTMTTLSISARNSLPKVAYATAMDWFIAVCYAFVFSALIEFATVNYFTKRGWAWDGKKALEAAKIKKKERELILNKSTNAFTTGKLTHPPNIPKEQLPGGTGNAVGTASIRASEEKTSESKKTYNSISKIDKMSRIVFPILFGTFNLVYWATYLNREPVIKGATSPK", "T3 sequence (P63138 25-474 partner limits assumed)": "as the sequence (P63138 25-474 partner limits assumed) above", "T3 sequence (P18508 39-466)": "as the sequence (P18508 39-466) above", "assay": "cell-based", "procedure": "as §1, §2, §3"}, "α2β2γ2S GABAA-R [4]": {"biological_target": "T4, α2β2γ2S GABAA-R (Rattus norvegicus, UniProt P18508+P23576)", "T4 sequence (P23576 29-451)": "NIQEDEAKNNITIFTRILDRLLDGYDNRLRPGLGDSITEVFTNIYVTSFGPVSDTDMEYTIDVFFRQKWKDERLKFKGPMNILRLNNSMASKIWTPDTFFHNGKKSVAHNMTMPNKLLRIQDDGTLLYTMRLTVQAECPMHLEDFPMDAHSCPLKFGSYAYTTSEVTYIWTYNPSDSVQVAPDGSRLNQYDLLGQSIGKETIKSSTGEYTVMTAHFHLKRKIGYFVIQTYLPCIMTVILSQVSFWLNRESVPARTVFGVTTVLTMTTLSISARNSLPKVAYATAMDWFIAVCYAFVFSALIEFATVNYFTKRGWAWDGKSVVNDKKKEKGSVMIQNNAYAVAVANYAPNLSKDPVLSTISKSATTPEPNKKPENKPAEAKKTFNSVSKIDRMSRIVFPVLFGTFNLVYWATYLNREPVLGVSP", "T4 sequence (P63138 25-474 partner limits assumed)": "as the sequence (P63138 25-474 partner limits assumed) above", "T4 sequence (P18508 39-466)": "as the sequence (P18508 39-466) above", "assay": "cell-based", "procedure": "as §1, §2, §3"}, "α1β2γ2S GABAA-R [5]": {"biological_target": "T2, α1β2γ2S GABAA-R", "assay": "biochemical", "type": "binding", "procedure": "(§4) HEK293 cells (CRL 1573, American type Culture Collection, Rockville, MD, USA) were cultured in Dulbecco's modified Eagle's medium (D-MEM, Invitrogen, Carlsbad, CA, USA) supplemented with 10% fetal bovine serum (Invitrogen, Carlsbad, CA, USA) and 1% MEM Non-Essential Amino Acids Solution (Invitrogen, Carlsbad, CA, USA). cDNAs encoding rat GABAA-R subunits were in the following vectors: α1 and α5 in pRc/CMV, α2, α3, γ2S and γ3 in pcDNA3 and β2 in pcDNA1. The cells were transiently transfected (5 μg of each cDNA per 100 mm dish) using FuGene™ (Roche Diagnostics Corporation) at a 3:1 FuGene:DNA ratio. […] Forty-eight hours after transfection, cells were washed with ice-cold PBS, harvested and homogenized. Cell homogenates were centrifuged (100,000 g, 25 min) and washed three times by homogenization in ice-cold PBS buffer followed by centrifugation at 100,000 g for 25 min. The final pellets were stored at -20°C until needed.\n(§5) The samples were then diluted with 5 ml of ice-cold buffer and filtered under vacuum through glass-fiber filters (GF/B Whatman). Filters were washed 3 times with 5 ml of buffer and the radioactivity was quantitated by liquid scintillation counting in 5 ml of Ecolite scintillation fluid (ICN). Non-specific binding determined in the presence of 100 μM Ro 15–1788 (Sigma-Aldrich) was subtracted from total binding to calculate specific binding. Data were analyzed by non-linear regression (Prism, Graph-Pad software)."}, "α5β2γ2S GABAA-R [6]": {"biological_target": "T3, α5β2γ2S GABAA-R", "assay": "biochemical", "type": "binding", "procedure": "as §4, §5"}, "α3β2γ2S GABAA-R [7]": {"biological_target": "T1, α3β2γ2S GABAA-R", "assay": "biochemical", "type": "binding", "procedure": "as §4, §5"}, "α1β2γ3 GABAA-R": {"biological_target": "T5, α1β2γ3 GABAA-R (Rattus norvegicus, UniProt P28473+P62813)", "T5 construct": "expressed in transfected cells; host or cells: HEK293 (CRL 1573), transient transfection", "T5 sequence (P62813 28-455)": "as the sequence (P62813 28-455) above", "T5 sequence (P63138 25-474 partner limits assumed)": "as the sequence (P63138 25-474 partner limits assumed) above", "T5 sequence (P28473 18-467)": "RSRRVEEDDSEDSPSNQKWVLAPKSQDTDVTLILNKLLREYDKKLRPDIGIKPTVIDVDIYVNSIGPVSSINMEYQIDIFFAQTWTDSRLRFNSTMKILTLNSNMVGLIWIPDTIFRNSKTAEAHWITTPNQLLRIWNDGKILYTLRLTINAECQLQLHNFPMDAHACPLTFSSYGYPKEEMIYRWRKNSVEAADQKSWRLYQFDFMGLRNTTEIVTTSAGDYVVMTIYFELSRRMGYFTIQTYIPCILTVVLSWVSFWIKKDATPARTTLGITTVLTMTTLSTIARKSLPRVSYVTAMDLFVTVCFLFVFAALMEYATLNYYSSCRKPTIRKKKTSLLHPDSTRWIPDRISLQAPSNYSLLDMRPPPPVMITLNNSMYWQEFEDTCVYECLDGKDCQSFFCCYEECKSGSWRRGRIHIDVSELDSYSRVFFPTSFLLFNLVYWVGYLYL", "assay": "biochemical", "type": "binding", "procedure": "as §4, §5"}, "α2β2γ2S GABAA-R [8]": {"biological_target": "T4, α2β2γ2S GABAA-R", "assay": "biochemical", "type": "binding", "procedure": "as §4, §5"}, "α2β2γ3 GABAA-R": {"biological_target": "T6, α2β2γ3 GABAA-R (Rattus norvegicus, UniProt P23576+P28473)", "T6 construct": "expressed in transfected cells; host or cells: HEK293 (CRL 1573), transient transfection", "T6 sequence (P23576 29-451)": "as the sequence (P23576 29-451) above", "T6 sequence (P63138 25-474 partner limits assumed)": "as the sequence (P63138 25-474 partner limits assumed) above", "T6 sequence (P28473 18-467)": "as the sequence (P28473 18-467) above", "assay": "biochemical", "type": "binding", "procedure": "as §4, §5"}, "α5β2γ3 GABAA-R": {"biological_target": "T7, α5β2γ3 GABAA-R (Rattus norvegicus, UniProt P19969+P28473)", "T7 construct": "expressed in transfected cells; host or cells: HEK293 (CRL 1573), transient transfection", "T7 sequence (P19969 32-464 limits assumed)": "as the sequence (P19969 32-464 limits assumed) above", "T7 sequence (P63138 25-474 partner limits assumed)": "as the sequence (P63138 25-474 partner limits assumed) above", "T7 sequence (P28473 18-467)": "as the sequence (P28473 18-467) above", "assay": "biochemical", "type": "binding", "procedure": "as §4, §5"}, "in vivo": {"assay": "in vivo", "type": "in vivo, rat", "conditions": "in vivo; rat, one animal excluded from the plot, 10 min after oral 5 mg/kg ocinaplon, may have regurgitated part of the dose; read-out: blood level", "procedure": "At 1 h, corresponding to the time at which the anticonflict effect of ocinaplon was evaluated, the plasma concentration of DOV 315,090 is ~38% of the concentration of parent compound.\nFigure 2 Pharmacokinetics of ocinaplon and DOV 315,090. Blood levels of ocinaplon (●,○) and DOV 315090 (▲,△) were determined at various times after i.v. (●,▲) or oral (○,△) administration of 5 mg/kg ocinaplon to rats. […] This animal may have regurgitated a portion of the dose (of the suspension)."}, "[9]": {"conditions": "[3H]Ro15-1788 displacement, n = 3, read-out: IC50"}, "[10]": {"conditions": "mean ± SEM, n = 3, read-out: pIC50 (converted)"}}, "note": "Like-named read-outs stand apart in the source and are kept apart here.", "data": [{"compound": "CN1C(=O)CN=C(c2ccccc2)c2cc(Cl)ccc21", "note": "[diazepam, reference compound]", "values": [{"measurement": "Emax", "setting": "α3β2γ2S GABAA-R [1]", "result": "232 ± 31", "unit": "%"}, {"measurement": "Emax", "setting": "α1β2γ2S GABAA-R [2]", "result": "144 ± 8", "unit": "%"}, {"measurement": "Emax", "setting": "α5β2γ2S GABAA-R [3]", "result": "224 ± 24", "unit": "%"}, {"measurement": "Emax", "setting": "α2β2γ2S GABAA-R [4]", "result": "157 ± 14", "unit": "%"}]}, {"compound": "O=C(c1ccccn1)c1cnn2c(-c3ccncc3)ccnc12", "note": "[ocinaplon, 2-pyridinyl [7-(4-pyridinyl)pyrazolo[1,5-a]pyrimidin-3-yl]methanone]", "values": [{"measurement": "IC50", "setting": "α1β2γ2S GABAA-R [5]; [9]", "result": 6.3, "unit": "µM"}, {"measurement": "IC50/DZ IC50", "setting": "α1β2γ2S GABAA-R [5]; ratio to diazepam IC50", "result": 218}, {"measurement": "IC50", "setting": "α5β2γ2S GABAA-R [6]; [9]", "result": 9.6, "unit": "µM"}, {"measurement": "IC50/DZ IC50", "setting": "α5β2γ2S GABAA-R [6]; ratio to diazepam IC50", "result": 355}, {"measurement": "IC50", "setting": "α3β2γ2S GABAA-R [7]; [9]", "result": 7.7, "unit": "µM"}, {"measurement": "IC50", "setting": "α3β2γ2S GABAA-R [7]; [10]", "result": 7.59, "unit": "µM"}, {"measurement": "IC50/DZ IC50", "setting": "α3β2γ2S GABAA-R [7]; ratio to diazepam IC50", "result": 158}, {"measurement": "IC50", "setting": "α1β2γ3 GABAA-R; [3H]Ro15-1788 displacement, α1β2γ3, n = 3, read-out: IC50", "result": 2.3, "unit": "µM"}, {"measurement": "IC50", "setting": "α1β2γ3 GABAA-R; α1β2γ3, mean ± SEM, n = 3, read-out: pIC50 (converted)", "result": 2.24, "unit": "µM"}, {"measurement": "IC50/DZ IC50", "setting": "α1β2γ3 GABAA-R; α1β2γ3, ratio to diazepam IC50", "result": 10.5}, {"measurement": "IC50", "setting": "α2β2γ2S GABAA-R [8]; [10]", "result": 24, "unit": "µM"}, {"measurement": "IC50/DZ IC50", "setting": "α2β2γ2S GABAA-R [8]; ratio to diazepam IC50", "result": 759}, {"measurement": "IC50", "setting": "α2β2γ3 GABAA-R; [3H]Ro15-1788 displacement, α2β2γ3, n = 3, read-out: IC50", "result": 20, "unit": "µM"}, {"measurement": "IC50", "setting": "α2β2γ3 GABAA-R; α2β2γ3, mean ± SEM, n = 3, read-out: pIC50 (converted)", "result": 18.2, "unit": "µM"}, {"measurement": "IC50/DZ IC50", "setting": "α2β2γ3 GABAA-R; α2β2γ3, ratio to diazepam IC50", "result": 115}, {"measurement": "IC50", "setting": "α5β2γ3 GABAA-R; [3H]Ro15-1788 displacement, α5β2γ3, n = 3, read-out: IC50", "result": 10, "unit": "µM"}, {"measurement": "IC50", "setting": "α5β2γ3 GABAA-R; α5β2γ3, mean ± SEM, n = 3, read-out: pIC50 (converted)", "result": 9.77, "unit": "µM"}, {"measurement": "IC50/DZ IC50", "setting": "α5β2γ3 GABAA-R; α5β2γ3, ratio to diazepam IC50", "result": 120}, {"measurement": "Emax", "setting": "α3β2γ2S GABAA-R [1]", "result": "181 ± 18", "unit": "%"}, {"measurement": "EC50", "setting": "α3β2γ2S GABAA-R [1]; α3β2γ2S, GABA EC10, mean ± SEM, read-out: pEC50 (converted)", "result": 6.92, "unit": "µM"}, {"measurement": "EC50", "setting": "α3β2γ2S GABAA-R [1]; α3β2γ2S, GABA EC10, number of oocytes in parentheses, read-out: EC50", "result": 8.01, "unit": "µM"}, {"measurement": "EC50/DZ EC50", "setting": "α3β2γ2S GABAA-R [1]; α3β2γ2S, ratio to diazepam EC50", "result": 87}, {"measurement": "Emax/DZ Emax", "setting": "α3β2γ2S GABAA-R [1]; α3β2γ2S, ratio to diazepam Emax", "result": 0.78}, {"measurement": "concentration at 10 min", "setting": "in vivo", "result": 470, "unit": "ng/mL"}, {"measurement": "Emax", "setting": "α1β2γ2S GABAA-R [2]", "result": "132 ± 8", "unit": "%"}, {"measurement": "EC50", "setting": "α1β2γ2S GABAA-R [2]; α1β2γ2S, GABA EC10, mean ± SEM, read-out: pEC50 (converted)", "result": 2.69, "unit": "µM"}, {"measurement": "EC50", "setting": "α1β2γ2S GABAA-R [2]; α1β2γ2S, GABA EC10, number of oocytes in parentheses, read-out: EC50", "result": 2.93, "unit": "µM"}, {"measurement": "EC50/DZ EC50", "setting": "α1β2γ2S GABAA-R [2]; α1β2γ2S, ratio to diazepam EC50", "result": 77}, {"measurement": "Emax/DZ Emax", "setting": "α1β2γ2S GABAA-R [2]; α1β2γ2S, ratio to diazepam Emax", "result": 0.91}, {"measurement": "Emax", "setting": "α5β2γ2S GABAA-R [3]", "result": "84 ± 4", "unit": "%"}, {"measurement": "EC50", "setting": "α5β2γ2S GABAA-R [3]; α5β2γ2S, GABA EC10, mean ± SEM, read-out: pEC50 (converted)", "result": 3.31, "unit": "µM"}, {"measurement": "EC50", "setting": "α5β2γ2S GABAA-R [3]; α5β2γ2S, GABA EC10, number of oocytes in parentheses, read-out: EC50", "result": 3.5, "unit": "µM"}, {"measurement": "EC50/DZ EC50", "setting": "α5β2γ2S GABAA-R [3]; α5β2γ2S, ratio to diazepam EC50", "result": 139}, {"measurement": "Emax/DZ Emax", "setting": "α5β2γ2S GABAA-R [3]; α5β2γ2S, ratio to diazepam Emax", "result": 0.37}, {"measurement": "Emax", "setting": "α2β2γ2S GABAA-R [4]", "result": "150 ± 6", "unit": "%"}, {"measurement": "EC50", "setting": "α2β2γ2S GABAA-R [4]; α2β2γ2S, GABA EC10, number of oocytes in parentheses, read-out: EC50", "result": 9.12, "unit": "µM"}, {"measurement": "EC50/DZ EC50", "setting": "α2β2γ2S GABAA-R [4]; α2β2γ2S, ratio to diazepam EC50", "result": 350}, {"measurement": "Emax/DZ Emax", "setting": "α2β2γ2S GABAA-R [4]; α2β2γ2S, ratio to diazepam Emax", "result": 0.95}]}]}
